Results reported in patent EP3909578A1, “ANTIVIRAL COMPOSITION COMPRISING EEYARESTATIN I” (Universidad de Castilla la Mancha, priority 2020, dated 2021).
Like-named read-outs stand apart in the source and are kept apart here.

Columns and labels:
Zika virus [1] = assay: Inhibition of Zika virus replication in infected Vero cell culture (MOI 1, virus yield by TCID50); type: cell-based; conditions: for Zika virus replication during infections in cell culture: Vero cells, MOI of 1, drug added after 1 hour adsorption, 24 hours post infection
Description: • Figure 1. Schematic representation of flavivirus life cycle and steps inhibited by eeyarestatin I. The antiviral effect observed during treatment with eeyarestatin I can be due to the inhibition of at least three different steps of the life cycle (indicated with a red star and highlighted in red letters). A, Inhibition of the valosin-containing protein / p97 ATPase (VCP/p97) and/or ERAD pathway indirectly affects virus replication on ER factories. B, Inhibition of VCP/p97 affects virus uncoating. C, Novel mechanism of action described in this invention: eeyarestatin I reduces virus particle infectivity before entering the cell (discovery patented here). • Figure 2. Cell viability after exposure to VCP/p97 inhibitors. Viability of Vero (African green monkey kidney fibroblasts) cells treated with VCP/p97 inhibitors xanthohumol (XAN) and eeyarestatin I (EEY) during 24 (A) or 48 hours (B). Cellular viability is represented as the percentage of metabolically active cells relative to mock-treated cells (CellTiter-Blue Cell Viability Assay, Promega). There are given the 50% cytotoxicity concentration (CC50) values for each drug and exposure time tested. • Figure 3. VCP/p97 drugs Xanthohumol and eeyarestatin I inhibit virus replication in cell culture (Vero cells). Virus titres measured by 50% tissue culture infectious dose (TCID50) in the supernatants of Zika virus-infected cells. A, Schematic representation of the assay. A monolayer of Vero cells was inoculated with Zika virus at a multiplicity of infection (MOI) of 1 TCID50 per cell (input). After 1 hour of incubation at 37°C, to allow virus adsorption, the supernatant was removed, the cells washed, and fresh media containing each drug at the concentrations indicated was added. At 24 hours post infection the cellular supernatants were collected (virus progeny) and the virus yields quantified by TCID50 (virus titration). B-C, Changes in virus titres and cell viability in cultures treated with increasing concentrations of eeyarestatin I (B) and xanthohumol (C) for 24 hours. […]

Usutu virus = assay: Virucidal activity: cell-free incubation of virus sample with drug at 37°C, then TCID50 titration; conditions: for virucidal activity (loss of viral infectivity): incubation at 37°C in the absence of cells, 6 µM over time
Description: (§1) • Figure 1. Schematic representation of flavivirus life cycle and steps inhibited by eeyarestatin I. The antiviral effect observed during treatment with eeyarestatin I can be due to the inhibition of at least three different steps of the life cycle (indicated with a red star and highlighted in red letters). A, Inhibition of the valosin-containing protein / p97 ATPase (VCP/p97) and/or ERAD pathway indirectly affects virus replication on ER factories. B, Inhibition of VCP/p97 affects virus uncoating. C, Novel mechanism of action described in this invention: eeyarestatin I reduces virus particle infectivity before entering the cell (discovery patented here). • Figure 2. Cell viability after exposure to VCP/p97 inhibitors. Viability of Vero (African green monkey kidney fibroblasts) cells treated with VCP/p97 inhibitors xanthohumol (XAN) and eeyarestatin I (EEY) during 24 (A) or 48 hours (B). Cellular viability is represented as the percentage of metabolically active cells relative to mock-treated cells (CellTiter-Blue Cell Viability Assay, Promega). There are given the 50% cytotoxicity concentration (CC50) values for each drug and exposure time tested. • Figure 3. VCP/p97 drugs Xanthohumol and eeyarestatin I inhibit virus replication in cell culture (Vero cells). Virus titres measured by 50% tissue culture infectious dose (TCID50) in the supernatants of Zika virus-infected cells. A, Schematic representation of the assay. A monolayer of Vero cells was inoculated with Zika virus at a multiplicity of infection (MOI) of 1 TCID50 per cell (input). After 1 hour of incubation at 37°C, to allow virus adsorption, the supernatant was removed, the cells washed, and fresh media containing each drug at the concentrations indicated was added. At 24 hours post infection the cellular supernatants were collected (virus progeny) and the virus yields quantified by TCID50 (virus titration). B-C, Changes in virus titres and cell viability in cultures treated with increasing concentrations of eeyarestatin I (B) and xanthohumol (C) for 24 hours. The 50% inhibitory concentration (IC50) and the selectivity index (SI) values are provided for each drug. […] A, Schematic representation of the assay. The virus sample is directly incubated at 37°C in the presence of increasing concentrations of drugs. The treated sample is collected at different time points and directly titrated by TCID50. B-D Decrease in infectivity observed in a virus sample treated with amantadine (AMA), xanthohumol (XAN) or eeyarestatin I (EEY) and compared to a virus sample untreated (no drug) or mock-treated with vehicle (DMSO). B, Zika virus was incubated during 4 hours at 37°C in the presence of EEY (10 µM), XAN (10 µM), AMA (800 µM) or in the absence of drugs. C, Changes in the infectivity along time of a Zika virus sample incubated at 37°C in the presence of 6 µM EEY or XAN, or in the absence of drugs (No drug, DMSO). D, Changes in Usutu virus infectivity along time for a sample incubated at 37°C in the presence of 6 µM EEY or XAN, or in the absence of drugs (No drug, DMSO). • Figure 5. Eeyarestatin I exerts virucidal activity in a dose-dependent manner. […] Eeyarestatin I half maximum inhibitory concentration (IC50) is <1 µM for both Zika (A) and Usutu (B) viruses. • Figure 6. […] A, Schematic representation of the procedure to select adapted virus. In each virus passage, 100 µl of neat virus from the previous passage are inoculated to a monolayer of 10^5 Vero cells. After cell wash, the monolayer is incubated at 37°C and 5% CO2 in 1 ml of media (DMEM, 10% foetal bovine serum, 100 units penicillin-streptomycin) in the presence (EEY-adapted) or absence (untreated) of 5 µM eeyarestatin I. At 48 hours post-infection, the cellular supernatants are collected, titrated, and employed for the following virus passage. This process is repeated for a total of nine viral transfers. […]

Zika virus [2] = assay: as above; conditions: for virucidal activity (loss of viral infectivity): incubation at 37°C in the absence of cells, EEY 10 µM, XAN 10 µM, AMA 800 µM for 4 hours, or 6 µM over time
Description: as §1

Vero cells = assay: Cell viability of Vero cells after exposure to VCP/p97 inhibitors (CellTiter-Blue Cell Viability Assay); type: cell-based, African green monkey
Description: • Figure 1. Schematic representation of flavivirus life cycle and steps inhibited by eeyarestatin I. The antiviral effect observed during treatment with eeyarestatin I can be due to the inhibition of at least three different steps of the life cycle (indicated with a red star and highlighted in red letters). A, Inhibition of the valosin-containing protein / p97 ATPase (VCP/p97) and/or ERAD pathway indirectly affects virus replication on ER factories. B, Inhibition of VCP/p97 affects virus uncoating. C, Novel mechanism of action described in this invention: eeyarestatin I reduces virus particle infectivity before entering the cell (discovery patented here). • Figure 2. Cell viability after exposure to VCP/p97 inhibitors. Viability of Vero (African green monkey kidney fibroblasts) cells treated with VCP/p97 inhibitors xanthohumol (XAN) and eeyarestatin I (EEY) during 24 (A) or 48 hours (B). Cellular viability is represented as the percentage of metabolically active cells relative to mock-treated cells (CellTiter-Blue Cell Viability Assay, Promega). […] Virus titres measured by 50% tissue culture infectious dose (TCID50) in the supernatants of Zika virus-infected cells. […] At 24 hours post infection the cellular supernatants were collected (virus progeny) and the virus yields quantified by TCID50 (virus titration). […]

[3] = test system: Zika virus passaged during nine consecutive transfers (p9); assay: Virucidal activity on Zika virus populations after nine passages with or without 5 µM eeyarestatin I (resistance selection)
Description: • Figure 1. Schematic representation of flavivirus life cycle and steps inhibited by eeyarestatin I. The antiviral effect observed during treatment with eeyarestatin I can be due to the inhibition of at least three different steps of the life cycle (indicated with a red star and highlighted in red letters). A, Inhibition of the valosin-containing protein / p97 ATPase (VCP/p97) and/or ERAD pathway indirectly affects virus replication on ER factories. B, Inhibition of VCP/p97 affects virus uncoating. C, Novel mechanism of action described in this invention: eeyarestatin I reduces virus particle infectivity before entering the cell (discovery patented here). • Figure 2. Cell viability after exposure to VCP/p97 inhibitors. Viability of Vero (African green monkey kidney fibroblasts) cells treated with VCP/p97 inhibitors xanthohumol (XAN) and eeyarestatin I (EEY) during 24 (A) or 48 hours (B). Cellular viability is represented as the percentage of metabolically active cells relative to mock-treated cells (CellTiter-Blue Cell Viability Assay, Promega). There are given the 50% cytotoxicity concentration (CC50) values for each drug and exposure time tested. • Figure 3. VCP/p97 drugs Xanthohumol and eeyarestatin I inhibit virus replication in cell culture (Vero cells). Virus titres measured by 50% tissue culture infectious dose (TCID50) in the supernatants of Zika virus-infected cells. A, Schematic representation of the assay. A monolayer of Vero cells was inoculated with Zika virus at a multiplicity of infection (MOI) of 1 TCID50 per cell (input). After 1 hour of incubation at 37°C, to allow virus adsorption, the supernatant was removed, the cells washed, and fresh media containing each drug at the concentrations indicated was added. At 24 hours post infection the cellular supernatants were collected (virus progeny) and the virus yields quantified by TCID50 (virus titration). B-C, Changes in virus titres and cell viability in cultures treated with increasing concentrations of eeyarestatin I (B) and xanthohumol (C) for 24 hours. The 50% inhibitory concentration (IC50) and the selectivity index (SI) values are provided for each drug. […] A, Schematic representation of the assay. The virus sample is directly incubated at 37°C in the presence of increasing concentrations of drugs. The treated sample is collected at different time points and directly titrated by TCID50. B-D Decrease in infectivity observed in a virus sample treated with amantadine (AMA), xanthohumol (XAN) or eeyarestatin I (EEY) and compared to a virus sample untreated (no drug) or mock-treated with vehicle (DMSO). B, Zika virus was incubated during 4 hours at 37°C in the presence of EEY (10 µM), XAN (10 µM), AMA (800 µM) or in the absence of drugs. […]

[4] = cell-free incubation at 37°C, listed as Eeyarestatin I, read-out: IC50 (virucidal activity)
[5] = cell-free incubation at 37°C, read-out: IC50 (virucidal activity)

SMILES | Zika virus replication during infections in cell culture (Zika virus [1]) | selectivity index (ratio of CC50 and IC50) (Zika virus [1]; Zika virus replication in Vero cells) | virucidal activity (loss of viral infectivity) (Usutu virus) | virucidal activity (loss of viral infectivity) (Zika virus [2]) | toxicity in cell culture (Vero cells; 5 µM eeyarestatin I) | CC50 (Vero cells; time = 24 hours, read-out: 50% toxicity for Vero cells (CC50)) | IC50 (Usutu virus; [4]) | IC50 (Usutu virus; [5]) | IC50 (Usutu virus; time = 4 hours, read-out: estimated IC50) | IC50 (Zika virus [2]; [4]) | IC50 (Zika virus [2]; [5]) | IC50 (Zika virus [2]; time = 4 hours, read-out: estimated inhibitory constant) | IC50 ([3]; EEY-adapted Zika virus p9 (nine passages in 5 µM eeyarestatin I), 37°C for 4 hours) | IC50 ([3]; adapted Zika virus population (passaged 9 times in the presence of eeyarestatin I)) | IC50 ([3]; untreated Zika virus p9 (nine passages without drug), 37°C for 4 hours) | IC50 ([3]; untreated Zika virus population (nine passages in the absence of drugs))
COc1cc(O)c(CC=C(C)C)c(O)c1C(=O)/C=C/c1ccc(O)cc1 [xanthohumol, reference compound] | inhibit Zika virus replication | > 5 | no virucidal activity | did not affect viral infectivity |  |  |  |  |  |  |  |  |  |  |  | 
NC12CC3CC(CC(C3)C1)C2 [amantadine, reference compound] |  |  |  | did not affect viral infectivity |  |  |  |  |  |  |  |  |  |  |  | 
CC1(C)C(N(O)C(=O)Nc2ccc(Cl)cc2)N(c2ccc(Cl)cc2)C(=O)N1CC(=O)N/N=C/C=C/c1ccc([N+](=O)[O-])o1 (centres unmarked) [eeyarestatin I] | inhibit Zika virus replication |  | inhibits Usutu virus infectivity | significant loss of infectivity | very modest toxicity | 24 µM | < 1 µM | 0.15 µM | 0.15 µM | < 1 µM | 0.59 µM | < 0.6 µM | 0.13 µM | 0.13 µM | 0.31 µM | 0.31 µM
